In patent US5464861A, “2-thioindoles (selenoindoles) and related disulfides (selenides) which inhibit protein tyrosine kinases and which have antitumor properties” (Warner-Lambert, priority 1993, dated 1995):
Like-named read-outs stand apart in the source and are kept apart here. One block for each compound: values may come before it.

Columns and labels:
A549 lung = experiment: Growth inhibition assay, A549; format: cell-based; details: Homo sapiens, read-out: IC50 cell growth inhibition
[1] = target: T1, epidermal growth factor receptor tyrosine kinase (Homo sapiens, UniProt P00533); experiment: EGF receptor tyrosine kinase assay (P^32 incorporation in GAT); format: biochemical; details: for IC50: Table 2, EGRF-R, IC50 entries, read-out: IC50 (EGFR TK)
T1 construct: A native 170,000 epidermal growth factor receptor-kinase complex from shed plasma membrane vesicles; endogenous in cells
T1 sequence (P00533 25-1210): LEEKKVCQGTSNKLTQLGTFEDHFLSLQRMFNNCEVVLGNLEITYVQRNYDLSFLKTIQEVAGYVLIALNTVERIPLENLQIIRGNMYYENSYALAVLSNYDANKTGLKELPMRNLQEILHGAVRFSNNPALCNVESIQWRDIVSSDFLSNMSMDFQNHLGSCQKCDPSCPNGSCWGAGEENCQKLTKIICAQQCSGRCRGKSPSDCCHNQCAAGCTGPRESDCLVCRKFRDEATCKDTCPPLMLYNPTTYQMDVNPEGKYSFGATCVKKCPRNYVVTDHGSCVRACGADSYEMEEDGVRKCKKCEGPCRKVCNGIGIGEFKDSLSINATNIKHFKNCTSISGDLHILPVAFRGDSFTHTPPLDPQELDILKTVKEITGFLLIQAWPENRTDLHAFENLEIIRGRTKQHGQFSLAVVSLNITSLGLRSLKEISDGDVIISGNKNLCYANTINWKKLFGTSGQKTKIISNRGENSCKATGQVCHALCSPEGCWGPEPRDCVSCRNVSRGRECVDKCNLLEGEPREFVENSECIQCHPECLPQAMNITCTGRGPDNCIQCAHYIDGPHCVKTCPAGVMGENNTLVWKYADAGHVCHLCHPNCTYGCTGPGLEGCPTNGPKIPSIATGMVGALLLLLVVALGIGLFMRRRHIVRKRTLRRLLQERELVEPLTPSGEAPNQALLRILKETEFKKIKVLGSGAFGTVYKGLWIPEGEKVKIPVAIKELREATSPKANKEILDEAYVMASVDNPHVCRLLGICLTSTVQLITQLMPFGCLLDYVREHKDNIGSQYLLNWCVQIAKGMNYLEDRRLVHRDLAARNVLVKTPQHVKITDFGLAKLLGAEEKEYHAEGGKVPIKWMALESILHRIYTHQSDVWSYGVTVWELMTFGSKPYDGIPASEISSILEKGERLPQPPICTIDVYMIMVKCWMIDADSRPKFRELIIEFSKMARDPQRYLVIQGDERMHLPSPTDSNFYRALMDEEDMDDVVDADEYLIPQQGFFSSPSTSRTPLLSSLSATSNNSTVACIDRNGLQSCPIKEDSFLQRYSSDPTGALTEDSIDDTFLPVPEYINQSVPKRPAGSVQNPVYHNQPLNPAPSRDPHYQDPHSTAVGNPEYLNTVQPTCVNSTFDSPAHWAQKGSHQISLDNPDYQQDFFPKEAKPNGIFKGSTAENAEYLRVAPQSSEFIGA
T1 sequence (P01133 971-1023 partner limits assumed): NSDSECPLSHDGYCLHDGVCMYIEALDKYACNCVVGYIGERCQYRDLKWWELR
In short: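 Receptor pre-activated with 150 ng EGF for 10 min at room temperature. ATP with or without compound then added and incubated 10 min at room temperature.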

MDA 468 breast = experiment: Growth inhibition assay, MDA 468; format: cell-based; details: Homo sapiens, read-out: IC50 cell growth inhibition
[2] = system: EGF mediated phosphorylation of a variety of endogenous proteins; experiment: EGF mediated tyrosine phosphorylation, Western blot; format: cell-based, mouse; set-up: dose or concentration left out as unconfirmed; details: Swiss 3T3
Experimental: (§1) Swiss 3T3 fibroblasts, that were growth arrested in serum-free media for 24 hours, were exposed to various concentrations of compound for 2 hours. The cells were then exposed to individual growth factors for 5 minutes and proteins that were phosphorylated on tyrosine in response to the mitogens and were detected by Western blotting techniques using phosphotryosine antibodies. Similar techniques were used for tumor cell lines except the time in serum-free media was increased.

Swiss 3T3 fibroblasts = experiment: Growth factor mediated mitogenesis (tritiated thymidine incorporation); format: cell-based; details: Mus musculus, Swiss-3T3, 24 h
Experimental: Swiss 3T3 fibroblasts, that were growth arrested in serum-free media for 24 hours, were exposed to various concentrations of compound for 2 hours. The cells were then exposed to individual growth factors for 24 hours and mitogenesis assessed by measuring tritiated thymidine incorporation into DNA.
The concentration of 21 and 70 required to inhibit growth factor mediated mitogenesis by 50% for the following growth factors was as follows: […]

MDA-231 breast = experiment: Growth inhibition assay, MDA-231; format: cell-based; details: Homo sapiens, MDA-MB-231, read-out: IC50 cell growth inhibition
[3] = system: human tumor cell lines as well as the Swiss 3T3 fibroblasts; experiment: Growth inhibition of a variety of human tumor cell lines; format: cell-based, human; mouse
Experimental: Swiss 3T3 mouse fibroblasts were maintained in dMEM/F12 media containing 10% fetal calf serum. Two mL of cells at a density of 1×10^4/mL were placed in 24-well plates plus or minus various concentrations of the inhibitor. The cells were grown at 37° C. under 5% CO2 for 72 hours and then counted by Coulter counter. The data were expressed as the concentration of inhibitor necessary to decrease the growth rate by 50%.

[4] = system: Swiss 3T3 mouse fibroblasts; experiment: Growth inhibition assay, Swiss 3T3 fibroblasts; format: cell-based
Experimental: Swiss 3T3 mouse fibroblasts were maintained in dMEM/F12 media containing 10% fetal calf serum. […] The cells were grown at 37° C. under 5% CO2 for 72 hours and then counted by Coulter counter. The data were expressed as the concentration of inhibitor necessary to decrease the growth rate by 50%.

A431 epidermoid = experiment: Growth inhibition assay, A431; format: cell-based; details: Homo sapiens, A-431, read-out: IC50 cell growth inhibition
[5] = system: PDGF mediated autophosphorylation of the PDGF receptor and tyrosine phosphorylation of other endogenous proteins; experiment: PDGF mediated tyrosine phosphorylation, Western blot; format: cell-based, mouse; set-up: dose or concentration left out as unconfirmed; details: Swiss 3T3
Experimental: as §1

MDV-7 breast = experiment: Growth inhibition assay, MDV-7; format: cell-based; details: Homo sapiens, read-out: IC50 cell growth inhibition
HT-29 colon = experiment: Growth inhibition assay, HT-29; format: cell-based; details: Homo sapiens, read-out: IC50 cell growth inhibition
[6] = system: bFGF mediated tyrosine phosphorylation; experiment: bFGF mediated tyrosine phosphorylation, Western blot; format: cell-based, mouse
Experimental: as §1

[7] = system: human epidermoid carcinoma A431 cells; details: J. Antibiot. 1986;39:170; cited from earlier work
[8] = system: human mammary carcinoma MCF-7 and some esophageal tumors; details: nude mice, dose-dependent; cited from earlier work
[9] = target: T2, human PDGF β receptor intracellular tyrosine kinase domain (Homo sapiens, UniProt P09619); experiment: PDGF receptor tyrosine kinase inhibition assay (P^32 incorporation in Glu-Tyr); format: biochemical; details: at 100 μM; PDGF-R; read-out: % Inhibition at 100 μM (PDGFR TK)
T2 construct: human PDGF β receptor intracellular tyrosine kinase domain; made in house; host or cells: SF9 insect cells, recombinant baculovirus; cell lysates used
T2 sequence (P09619 554-1106 limits assumed): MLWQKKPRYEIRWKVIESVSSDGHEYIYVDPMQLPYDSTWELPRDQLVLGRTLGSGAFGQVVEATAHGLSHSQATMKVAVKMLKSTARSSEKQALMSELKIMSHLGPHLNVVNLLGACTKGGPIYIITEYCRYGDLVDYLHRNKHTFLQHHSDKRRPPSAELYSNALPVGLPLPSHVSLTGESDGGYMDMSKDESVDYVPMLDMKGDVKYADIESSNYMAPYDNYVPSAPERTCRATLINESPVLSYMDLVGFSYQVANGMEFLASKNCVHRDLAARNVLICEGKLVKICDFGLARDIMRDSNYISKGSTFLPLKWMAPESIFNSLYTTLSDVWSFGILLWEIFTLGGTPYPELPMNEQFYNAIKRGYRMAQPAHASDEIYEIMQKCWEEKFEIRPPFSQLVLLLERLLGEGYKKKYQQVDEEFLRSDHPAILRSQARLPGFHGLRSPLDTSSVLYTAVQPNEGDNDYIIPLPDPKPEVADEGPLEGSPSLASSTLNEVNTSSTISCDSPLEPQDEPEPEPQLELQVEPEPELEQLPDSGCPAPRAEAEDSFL
Experimental: Recombinant baculovirus containing human PDGF β receptor intracellular tyrosine kinase domain was used to infect SF9 cells to overexpress the protein, and cell lysates were used for the assay. The ability of the tyrosine kinase to phosphorylate glutamate tyrosine substrate in the presence of P^32 -ATP and inhibitor was measured by counting the incorporation of P^32 in Glu-Tyr in TCAprecipitable material.

[10] = Swiss 3T3, 72 hours, Table 2, read-out: IC50 growth inhibition

Structure (SMILES): CN1C(=S)C(C(=O)Nc2ccccc2)c2ccccc21 (stereo not drawn) [Compound 21, N-phenyl (1-methyl-2-thioxo-3-indolinyl)carboxamide]
IC50 (A549 lung): 30 µM
IC50 [1]: 1 µM
IC50 (MDA 468 breast): 43 µM
suppression of EGF mediated phosphorylation of a variety of endogenous proteins [2]: suppressed
IC50 (Swiss 3T3 fibroblasts; EGF): 2 µM
IC50 (Swiss 3T3 fibroblasts; PDGF): 8 µM
IC50 (Swiss 3T3 fibroblasts; bFGF): 13 µM
IC50 (Swiss 3T3 fibroblasts; serum): 19 µM
IC50 (MDA-231 breast): 15 µM
growth inhibition in words [3]: growth inhibitory
IC50 [4, 10]: 64 µM
IC50 ([4]; Swiss 3T3 fibroblasts, cell line table, read-out: IC50 cell growth inhibition): 64 µM
IC50 (A431 epidermoid): 62 µM
suppression of PDGF mediated autophosphorylation of the PDGF receptor and tyrosine phosphorylation of other endogenous proteins [5]: suppressed
IC50 (MDV-7 breast): 39 µM
IC50 (HT-29 colon): 55 µM
suppression of bFGF mediated tyrosine phosphorylation ([6]; Swiss 3T3, 10 to 50 mM): suppressed

Structure (SMILES): O=CN/C=C/c1cc(O)ccc1O [erbstatin]
IC50 growth of A431 cells [7]: 3.6 µg/mL
tumor growth inhibition [8]: inhibits the growth

IC50 [1]: 8.6 µM
inhibition at 100 µM [9]: 1%
Structure (SMILES): Cn1c(SSc2c(C(=O)Nc3ccccc3)c3ccccc3n2C)c(C(=O)Nc2ccccc2)c2ccccc21 [Compound 70, bis [N-phenyl 1-methylindolyl-3-carboxamide-(2)] disulfide]
IC50 (Swiss 3T3 fibroblasts; EGF): 3 µM
IC50 (Swiss 3T3 fibroblasts; PDGF): 4 µM
IC50 (Swiss 3T3 fibroblasts; bFGF): 3 µM
IC50 (Swiss 3T3 fibroblasts; serum): 3 µM
IC50 [4, 10]: 12 µM
inhibition of bFGF mediated tyrosine phosphorylation (selectivity over EGF and PDGF) ([6]; Swiss 3T3, as low as 2 mM): more selective and inhibited only bFGF mediated tyrosine phosphorylation

IC50 [1]: 4.3 µM
inhibition at 100 µM [9]: 21%
Structure (SMILES): Cn1c(SSc2c(C(=O)Nc3ccccc3)c3cc(Cl)ccc3n2C)c(C(=O)Nc2ccccc2)c2cc(Cl)ccc21 [Compound 73, bis[N-phenyl 5-chloro-1-methylindolyl-3-carboxamide-(2)]disulfide]
IC50 [4, 10]: 9.3 µM

Structure (SMILES): CCOC(=O)Cc1c(SSc2c(CC(=O)OCC)c3ccccc3n2C)n(C)c2ccccc12 [Compound 33, bis[ethyl 1-methylindolyl-3-acetate-(2)]disulfide]
IC50 [1]: 39 µM
inhibition at 100 µM [9]: 16.7%
IC50 ([4]; Swiss-3T3, 72 h, read-out: IC50 growth inhibition): 3 µM

IC50 [1]: 38 µM
inhibition at 100 µM [9]: 12.8%
Structure (SMILES): O=C(Cc1c(SSc2[nH]c3ccccc3c2CC(=O)NCc2ccccc2)[nH]c2ccccc12)NCc1ccccc1 [Compound 34, 2,2'-dithiobis[N-benzyl 2-(3-indolyl)acetamide]]
IC50 [4, 10]: 2.7 µM

IC50 [1]: 34.5 µM
inhibition at 100 µM [9]: 4.7%
Structure (SMILES): Cn1c(SSc2c(CC(=O)O)c3ccccc3n2C)c(CC(=O)O)c2ccccc21 [Compound 32, bis[1-methylindolyl-3-acetic acid-(2)]-disulfide]
IC50 [4, 10]: 36 µM

inhibition at 100 µM ([1]; at 100 μM, EGRF-R, read-out: % Inhibition at 100 μM (EGFR TK)): 11%
inhibition at 100 µM [9]: 20%
Structure (SMILES): COc1cccc2c1c(C(=O)Nc1ccccc1)c(SSc1c(C(=O)Nc3ccccc3)c3c(OC)cccc3n1C)n2C [Compound 79, bis [N-phenyl 4-methoxy-1-methyl indolyl-3-carboxamide-(2)]disulfide]
IC50 [4, 10]: 1.9 µM
